Data on 5 compounds can be found in ChEMBL document CHEMBL1201862, “PubChem BioAssay data set” (2004).

Molecules are shown by their SMILES. Activity calls are given as the source filed them.

The target of assay [1] is T1, NADPH oxidase 1 (Homo sapiens, UniProt Q9Y5S8).
T1 sequence (Q9Y5S8 whole entry): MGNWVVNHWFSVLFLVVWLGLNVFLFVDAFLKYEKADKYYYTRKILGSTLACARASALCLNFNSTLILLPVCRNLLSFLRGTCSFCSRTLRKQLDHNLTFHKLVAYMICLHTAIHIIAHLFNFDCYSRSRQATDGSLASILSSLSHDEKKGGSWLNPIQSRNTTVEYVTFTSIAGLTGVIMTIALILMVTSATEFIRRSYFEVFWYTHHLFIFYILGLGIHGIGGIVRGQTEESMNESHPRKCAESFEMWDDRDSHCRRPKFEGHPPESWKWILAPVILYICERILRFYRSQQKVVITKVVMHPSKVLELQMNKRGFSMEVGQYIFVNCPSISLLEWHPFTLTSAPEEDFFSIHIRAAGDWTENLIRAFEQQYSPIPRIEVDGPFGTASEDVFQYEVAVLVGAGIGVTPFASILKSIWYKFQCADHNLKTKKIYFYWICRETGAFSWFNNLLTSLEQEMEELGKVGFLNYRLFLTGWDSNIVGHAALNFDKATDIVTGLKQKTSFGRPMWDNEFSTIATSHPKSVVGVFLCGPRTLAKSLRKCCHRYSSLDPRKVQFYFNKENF
The experiment in a line: Luminescence-based cell-based dose response assay to identify inhibitors of NADPH oxidase 1 (NOX1). It is filed as functional.

The target of assay [2] is T2, Heat shock factor protein 1 (Mus musculus, UniProt P38532).
T2 sequence (P38532 whole entry): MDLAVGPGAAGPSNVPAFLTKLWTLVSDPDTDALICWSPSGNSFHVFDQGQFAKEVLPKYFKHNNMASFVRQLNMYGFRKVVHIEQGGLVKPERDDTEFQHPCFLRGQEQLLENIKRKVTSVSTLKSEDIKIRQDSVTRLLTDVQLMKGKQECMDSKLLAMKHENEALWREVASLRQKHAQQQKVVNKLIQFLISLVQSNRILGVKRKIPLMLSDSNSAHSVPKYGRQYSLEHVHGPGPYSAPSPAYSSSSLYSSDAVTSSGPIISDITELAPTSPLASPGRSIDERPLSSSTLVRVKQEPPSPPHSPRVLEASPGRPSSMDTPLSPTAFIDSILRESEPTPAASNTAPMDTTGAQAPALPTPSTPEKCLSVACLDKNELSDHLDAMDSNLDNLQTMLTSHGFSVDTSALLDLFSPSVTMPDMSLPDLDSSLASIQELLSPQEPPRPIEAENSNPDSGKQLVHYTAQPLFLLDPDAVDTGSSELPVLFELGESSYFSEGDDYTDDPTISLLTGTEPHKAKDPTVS
The experiment in a line: decrease of HSF1-responsive luciferase luminescence – cell-based, NIH3T3, dose retest, confirmation (AID 2382).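 Further: NIH3T3 fibroblasts with HSF1-driven luciferase reporter stressed by proteasome inhibitor MG132; luminescence from HSF1-driven luciferase expression after 8 hours of MG132 stress.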 The format is functional.

A short description of assay [3]: alpha-synuclein stem-loop luciferase translation blockers – H4 neuroglioma cells, luminescence, confirmation (AID 1988). The format is functional, cell-based.
Assay [4] in a line: Luminescence Cell-Based Dose Response HTS to Identify Inhibitors of 5'UTR Stem-Loop Driven Prion Protein mRNA Translation in H4 Neuroglioblastoma Cells. [Related pubchem assays: 1827 (Project Summary), 1813 (Primary HTS)]. The format is functional.
Assay [5] can be described thus: luciferase reporter signal suppression in cells – H4 neuroglioma cells, luminescence, dose response (AID 1990). It is filed as functional, cell-based.
The nature of assay [6]: Luminescence-based dose response cell-based high throughput screening assay for cytotoxic compounds using the IEC-6 intestinal epithelial cell line. [Related pubchem assays: 1858 (Summary AID.), 1825 (Counterscreen.), 1907 (Confirmation screen.)]. It is filed as functional.
Assay [7] addresses T3, Protein RecA (Mycobacterium tuberculosis, UniProt P9WHJ3).
T3 sequence (P9WHJ3 whole entry): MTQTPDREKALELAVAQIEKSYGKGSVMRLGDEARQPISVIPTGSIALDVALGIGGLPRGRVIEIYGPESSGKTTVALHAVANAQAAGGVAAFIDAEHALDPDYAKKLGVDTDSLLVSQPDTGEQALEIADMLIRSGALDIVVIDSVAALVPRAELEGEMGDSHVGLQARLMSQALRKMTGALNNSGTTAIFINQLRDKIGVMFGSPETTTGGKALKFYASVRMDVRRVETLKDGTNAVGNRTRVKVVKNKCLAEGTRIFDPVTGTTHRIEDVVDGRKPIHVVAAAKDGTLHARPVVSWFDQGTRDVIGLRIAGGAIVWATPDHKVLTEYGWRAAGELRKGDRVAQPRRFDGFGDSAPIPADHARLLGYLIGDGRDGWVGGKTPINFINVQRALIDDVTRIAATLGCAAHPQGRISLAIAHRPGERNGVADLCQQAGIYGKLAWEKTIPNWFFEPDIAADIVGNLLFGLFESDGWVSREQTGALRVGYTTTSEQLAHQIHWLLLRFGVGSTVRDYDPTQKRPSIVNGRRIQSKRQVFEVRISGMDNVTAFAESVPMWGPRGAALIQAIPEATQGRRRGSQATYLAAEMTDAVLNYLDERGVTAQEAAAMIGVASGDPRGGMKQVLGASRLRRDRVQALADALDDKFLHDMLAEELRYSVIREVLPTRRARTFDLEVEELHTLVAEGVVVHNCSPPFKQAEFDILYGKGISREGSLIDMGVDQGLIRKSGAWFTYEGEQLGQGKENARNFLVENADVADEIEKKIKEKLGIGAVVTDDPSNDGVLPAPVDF
The experiment in a line: Fluorescence Cell-Free Homogeneous Dose Retest to Identify Inhibitors of RecA-Intein Splicing Activity. [Related pubchem assays (depositor defined):AID2097, AID2223, AID489010, AID492950]. It is filed as functional.

Assay [8] deals with T4, Replicative DNA helicase DnaB (Mycobacterium tuberculosis, UniProt P9WMR3).
T4 sequence (P9WMR3 whole entry): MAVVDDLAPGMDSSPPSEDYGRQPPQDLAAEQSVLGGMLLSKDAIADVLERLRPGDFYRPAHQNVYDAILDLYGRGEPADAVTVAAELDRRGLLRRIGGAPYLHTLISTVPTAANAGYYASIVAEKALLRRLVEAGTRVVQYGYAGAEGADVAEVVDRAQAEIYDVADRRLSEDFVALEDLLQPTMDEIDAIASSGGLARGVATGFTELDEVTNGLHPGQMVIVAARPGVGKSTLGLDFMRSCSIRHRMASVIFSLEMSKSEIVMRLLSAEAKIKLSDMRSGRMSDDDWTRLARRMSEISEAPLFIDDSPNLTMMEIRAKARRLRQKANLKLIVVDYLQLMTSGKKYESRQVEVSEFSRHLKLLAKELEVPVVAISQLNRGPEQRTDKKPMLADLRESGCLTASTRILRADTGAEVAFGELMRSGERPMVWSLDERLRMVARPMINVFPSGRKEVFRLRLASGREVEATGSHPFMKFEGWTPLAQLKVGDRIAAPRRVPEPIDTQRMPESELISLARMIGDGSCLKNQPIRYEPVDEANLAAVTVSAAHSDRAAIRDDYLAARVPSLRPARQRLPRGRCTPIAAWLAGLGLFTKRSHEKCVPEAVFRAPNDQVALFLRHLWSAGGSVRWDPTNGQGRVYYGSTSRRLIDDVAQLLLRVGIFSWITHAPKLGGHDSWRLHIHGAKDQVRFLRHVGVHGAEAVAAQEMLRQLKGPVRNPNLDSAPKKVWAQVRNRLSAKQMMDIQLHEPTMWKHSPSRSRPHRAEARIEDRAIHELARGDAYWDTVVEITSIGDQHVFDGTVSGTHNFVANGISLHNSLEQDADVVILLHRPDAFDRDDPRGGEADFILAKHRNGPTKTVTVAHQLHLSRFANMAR
The experiment in a line: DnaB intein splicing inhibitors, dose response, biochemical, cell-free fluorescence (AID 449749). It is filed as functional.

Assay [9] has as its target T5, Estrogen receptor (Homo sapiens, UniProt P03372).
T5 sequence (P03372 whole entry): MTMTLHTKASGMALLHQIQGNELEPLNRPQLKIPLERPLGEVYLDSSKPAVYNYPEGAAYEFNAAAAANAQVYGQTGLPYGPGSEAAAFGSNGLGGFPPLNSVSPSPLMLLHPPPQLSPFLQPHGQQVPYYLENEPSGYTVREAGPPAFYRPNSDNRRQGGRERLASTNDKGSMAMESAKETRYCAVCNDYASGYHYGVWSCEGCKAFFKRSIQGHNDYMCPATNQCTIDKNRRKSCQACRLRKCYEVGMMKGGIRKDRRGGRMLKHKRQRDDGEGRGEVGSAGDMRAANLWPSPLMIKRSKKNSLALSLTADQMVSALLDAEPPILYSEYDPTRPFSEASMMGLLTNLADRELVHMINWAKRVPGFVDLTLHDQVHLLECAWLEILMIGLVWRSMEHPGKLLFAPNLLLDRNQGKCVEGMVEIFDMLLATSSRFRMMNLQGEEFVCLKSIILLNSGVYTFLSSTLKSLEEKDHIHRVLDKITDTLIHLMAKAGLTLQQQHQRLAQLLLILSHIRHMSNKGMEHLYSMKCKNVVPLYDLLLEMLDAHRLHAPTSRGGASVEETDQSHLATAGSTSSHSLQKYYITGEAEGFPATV
The experiment in a line: ERα coactivator recruitment enhancers – biochemical, TR-FRET, ERα LBD, dose response (AID 737).

Assay [10] addresses Neuropeptide Y receptor type 1 (Homo sapiens, UniProt P25929). Kind of assay: IC50 of human NPY-Y1 blockers – cell-based, dose response (AID 1277). The format is functional.
Assay [11] deals with Neuropeptide Y receptor type 2 (Homo sapiens, UniProt P49146). The experiment in a line: IC50 for human NPY-Y2 blockade – cell-based, counter-screen for NPY-Y1 antagonist project, dose response (AID 1278). The format is functional.
Chain of Neuropeptide Y receptor type 2 (P49146 whole entry): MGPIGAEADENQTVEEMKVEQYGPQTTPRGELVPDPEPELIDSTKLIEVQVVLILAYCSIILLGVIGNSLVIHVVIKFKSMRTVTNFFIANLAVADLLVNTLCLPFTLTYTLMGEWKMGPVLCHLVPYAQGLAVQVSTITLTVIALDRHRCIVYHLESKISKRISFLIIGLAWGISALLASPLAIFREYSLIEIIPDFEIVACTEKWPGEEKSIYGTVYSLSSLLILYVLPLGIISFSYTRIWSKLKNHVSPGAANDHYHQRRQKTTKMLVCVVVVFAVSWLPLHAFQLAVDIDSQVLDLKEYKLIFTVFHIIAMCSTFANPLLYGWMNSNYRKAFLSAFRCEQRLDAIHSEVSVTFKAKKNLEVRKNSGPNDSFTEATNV
Assay [12] can be described thus: blockers of CRF-binding protein–CRF-R2 complex – cell-based, uHTS hits, 384-well, dose response (AID 651639). The note with it: read-out: IC50_Mean. It is filed as functional, Homo sapiens.
The target in assay [13] is T6, Corticotropin-releasing factor receptor 2/Corticotropin-releasing factor-binding protein (Homo sapiens, UniProt P24387+Q13324).
T6 sequence (Q13324 whole entry): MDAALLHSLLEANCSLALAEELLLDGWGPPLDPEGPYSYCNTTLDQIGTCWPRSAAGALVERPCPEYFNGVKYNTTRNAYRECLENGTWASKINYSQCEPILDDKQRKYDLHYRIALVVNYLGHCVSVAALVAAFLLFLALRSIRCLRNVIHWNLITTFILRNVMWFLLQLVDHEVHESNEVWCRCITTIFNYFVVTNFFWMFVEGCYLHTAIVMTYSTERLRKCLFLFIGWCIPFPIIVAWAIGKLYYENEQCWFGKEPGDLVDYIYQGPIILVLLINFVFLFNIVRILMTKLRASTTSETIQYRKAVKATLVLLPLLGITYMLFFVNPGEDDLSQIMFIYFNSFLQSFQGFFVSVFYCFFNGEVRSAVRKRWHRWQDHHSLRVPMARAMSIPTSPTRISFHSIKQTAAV
T6 sequence (P24387 whole entry): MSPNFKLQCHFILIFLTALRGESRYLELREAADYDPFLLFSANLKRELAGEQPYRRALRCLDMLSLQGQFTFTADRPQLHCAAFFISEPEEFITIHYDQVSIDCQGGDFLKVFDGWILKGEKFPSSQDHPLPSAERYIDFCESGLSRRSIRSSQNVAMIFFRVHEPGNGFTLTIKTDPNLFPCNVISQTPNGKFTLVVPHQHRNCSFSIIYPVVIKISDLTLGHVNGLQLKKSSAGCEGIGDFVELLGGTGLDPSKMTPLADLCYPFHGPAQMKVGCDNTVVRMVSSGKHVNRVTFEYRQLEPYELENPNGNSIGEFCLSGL
Kind of assay: Dose Response confirmation of uHTS hits for small molecule antagonists of the CRF-binding protein and CRF-R2 receptor complex. It is filed as functional. The note with it: read-out: IC50_Mean.

Assay [14] is described as follows: cells.
Assay [15] is described as follows: viability of uninfected HEp-2 cells – cell-based, HTS, cytotoxicity control for RSV inhibitor project, dose response (AID 2410). It is filed as functional. The note with it: human respiratory syncytial virus.
Assay [16] concerns the target T6, Corticotropin-releasing factor receptor 2/Corticotropin-releasing factor-binding protein. The experiment in a line: activators of CRF receptor 2 with binding protein – uHTS hits, confirmation (AID 602473). It is filed as functional. To be noted: read-out: EC50_Mean.

Chain of Neuropeptide Y receptor type 1 (P25929 whole entry): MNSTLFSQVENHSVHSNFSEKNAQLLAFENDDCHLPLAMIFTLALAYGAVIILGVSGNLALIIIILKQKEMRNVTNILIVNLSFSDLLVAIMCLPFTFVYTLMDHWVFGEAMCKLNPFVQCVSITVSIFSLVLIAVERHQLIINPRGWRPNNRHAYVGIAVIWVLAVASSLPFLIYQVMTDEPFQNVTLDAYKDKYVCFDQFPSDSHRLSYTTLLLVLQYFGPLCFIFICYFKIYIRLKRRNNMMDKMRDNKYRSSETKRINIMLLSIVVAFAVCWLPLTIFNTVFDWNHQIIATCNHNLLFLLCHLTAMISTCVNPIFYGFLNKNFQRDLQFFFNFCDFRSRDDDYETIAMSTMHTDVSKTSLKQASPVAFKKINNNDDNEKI

On to `CC(=NNc1ccc(C(=O)O)cc1)c1ccc2c(c1)Nc1ccccc1S2`, for which the IC50 in assay [1] was 0.053 µM (active).

In the case of `O=C1C=C(NCCN2CCOCC2)C(=O)c2cnccc21`, the EC50 was 10.4 µM (active) in assay [2]; 1.88 µM (active) in assay [3]; 6.81 µM (active) in assay [4]; 1.99 µM (active) in assay [5]; 0.536 µM (active) in [7]. Further, the IC50 in [6] is 0.512 µM (active). In assay [8], the AC50 was 0.979 µM (active).

Consider `Cc1cc2oc(=O)cc(COC(=O)c3[nH]nc4ccccc34)c2cc1C`, for which the EC50 in assay [9] is 13.5 µM (active).

With `COc1ccccc1N(CC(=O)NC1CCCC1)C(=O)c1oc(C(C)(C)C)cc1C`, the IC50 is reported as 30.4 µM (not active) in assay [10] and > 35 µM (not active) in assay [11].

On to `O=C(O)c1ccc(-c2nc(-c3ccc(Cl)cc3Cl)cs2)cc1`, for which the IC50 was > 20 µM (inactive) in assay [12], 3.82 µM (active) in [13] and 44.2 µM (active) in assay [14]. For the same compound, in assay [15], the half-maximal cytotoxic concentration (CC50) is > 50 µM (active). The EC50 in assay [16] is > 53 µM (inactive).
